Calls of active or inactive are those of the source.
What was measured:
Format in all cases: functional, cell-based
P388 = test: Cytotoxicity against mouse P388 cells
SK-MEL-28 = test: Cytotoxicity against human SK MEL28 cells
HT-29 = test: Cytotoxicity against human HT-29 cells
A549 = test: Cytotoxicity against human A549 cells

Measured: Activity

CC(=O)O[C@H]1CC[C@]2(CO2)[C@@H]2[C@H](OC(C)=O)[C@@]3(O)[C@H](/C=C(/C)[C@H](O)C[C@H](OC(C)=O)[C@@]12C)OC(=O)[C@@H]3C
inactive: all assays above

C=C1[C@H](Cl)[C@@H]2OC(=O)[C@H](C)[C@]23O[C@@H]1[C@H](OC(C)=O)[C@H](OC(C)=O)[C@@]1(C)[C@@H](OC(C)=O)CC[C@]2(CO2)[C@@H]1[C@@H]3OC(C)=O
inactive: all assays above

C=C1CC[C@H](OC(C)=O)[C@@]2(C)[C@H]1[C@@H](OC(C)=O)[C@@]13O[C@](O)(C[C@H]2OC(C)=O)C(=C)C[C@@H]1OC(=O)[C@@H]3C
inactive: all assays above

CC(=O)O[C@H]1CC[C@]2(CO2)[C@@H]2[C@H](OC(C)=O)[C@@]3(O)[C@H](/C=C(/C)[C@H](OC(C)=O)C[C@H](OC(C)=O)[C@@]12C)OC(=O)[C@@H]3C
inactive: all assays above

CC(=O)O[C@H]1CC/C(C)=C\[C@@H]2OC(=O)[C@H](C)[C@@]2(O)[C@@H](OC(C)=O)[C@H]2[C@]3(CC[C@H](OC(C)=O)[C@]12C)CO3
inactive: all assays above

C=C1[C@H]2C[C@@H](OC(C)=O)[C@@]3(C)[C@@H](OC(C)=O)CC[C@]4(CO4)[C@@H]3[C@@H](OC(C)=O)[C@]3(O2)[C@@H](C)C(=O)O[C@H]3[C@H]1Cl
inactive: all assays above

C=C1CC[C@H](OC(C)=O)[C@]2(C)[C@@H](OC(C)=O)C[C@@H](OC(C)=O)/C(C)=C\[C@@H]3OC(=O)[C@H](C)[C@]3(O)[C@@H](OC(C)=O)[C@@H]12
inactive: all assays above

C=C1CC[C@H](OC(C)=O)[C@]2(C)[C@@H](OC(C)=O)C[C@@H](O)/C(C)=C\[C@@H]3OC(=O)[C@H](C)[C@]3(O)[C@@H](OC(C)=O)[C@@H]12
inactive: all assays above

From ChEMBL document CHEMBL1158013, “Absolute structures of new briarane diterpenoids from junceella fragilis” (J Nat Prod, 1999)
